One series concerns the target KRAS G12C-SOS1 (Homo sapiens (Human), UniProt Q07889). Kind of series: Inhibition test of compounds on KRAS G12C::SOS1 binding. The conditions noted are these: GST-KRAS G12C, His-SOS1. The method, then: The compound to be tested was prepared into a 10 mM stock solution with DMSO, and the compound was serially diluted using 1× test buffer. 0.1 μL of the compound solution with different concentrations was transferred to a 384-well plate. […] 5 μL of His-SOS1 was added to the 384-well plate, centrifuged at 1000 rpm for 1 min, and incubated at room temperature for 15 min.
After incubation, 10 μL of a mixed solution of anti-6his-Tb monoclonal antibody (Cisbio, Cat. No. 61HI2TLA) and anti-GST-XL665 monoclonal antibody (Cisbio, Cat. No. 61GSTXLA) was added to the test well, centrifuged at 1000 rpm for 1 min, and incubated at room temperature for 1 h.
After incubation, the fluorescence signal ratios at 665 nm and 615 nm were read on a multifunctional microplate reader (Perkin Elmer, Envision 2104), and the IC50 values were calculated using Graphpad 5 software.

Series [1] can be described thus: Plasma protein binding by equilibrium dialysis, human plasma. The class given is in vitro ADME. Conditions: 37° C., read-out: Free fraction in plasma, Human (%). The method, then:
(§1) Plasma protein binding rate of compounds was detected by equilibrium dialysis (HTDialysis, HTD 96b). The compound was prepared into a […] stock solution with DMSO, and then 25-fold diluted with 0.05 M sodium phosphate buffer as a working solution. A blank 96-well plate was taken and preloaded with 380 μL of plasma per well. The plasma was then added with the working solution at 20 μL/well and mixed well, with the compound at a final concentration of 1 μM, containing 0.2% DMSO per well.
(§2) 100 μL of 0.05 M sodium phosphate buffer was added to the reception-side of each dialysis chamber (HTD 96b), and then 100 μL of plasma containing the compound was added to the supply-side. The dialysis chamber was covered with a plastic lid, shaken and incubated at 37° C. for 5 h.
(§3) After incubation, 25 μL of samples were taken from each of the supply-side and the reception-side of the dialysis chamber and placed in the blank 96-well plate. An equal volume of plasma was added to each of the supply-side samples while an equal volume of 0.05 M sodium phosphate buffer was added to each of the reception-side samples and mixed well. The 96-well plate was added with an acetonitrile solution containing internal standard at 200 μL per well, vortexed and shaken at 600 rpm for 10 min, and centrifuged at 5594 g for 15 min (Thermo Multifuge×3R). 50 μL of the supernatant was then transferred to a new 96-well plate, and the samples were mixed with 50 μL of ultra-pure water for LC-MS/MS analysis.
(§4) Plasma protein binding rate and free fraction were calculated using the following formulas: % binding rate=100×([supply-side concentration]5h−[reception-side concentration]5h)/[supply-side concentration]5h. % free fraction=100−% binding rate.

Series [2] can be described thus: Plasma protein binding by equilibrium dialysis, mouse plasma. The class given is in vitro ADME. Conditions: 37° C., read-out: Free fraction in plasma, Mouse (%). The method, then:
as §1, §2, §3, §4
(Equilibrium dialysis compares concentrations on both sides of a semipermeable membrane.)

Series [3] deals with ERK phosphorylation level in DLD-1 cells. The experiment in a line: Inhibition of ERK phosphorylation level in DLD-1 cells (intracellular western blot). The class given is cell-based. The conditions noted are these: Homo sapiens. The method, then: Intracellular western blot quantitative analysis was used to detect the inhibitory level of compounds on ERK phosphorylation in DLD-1 cells.
DLD-1 cells (ATCC, CCL-221) were seeded in a T75 culture flask at 2.5×10^6 cells/flask and cultured in a RPMI 1640 medium containing 10% FBS for 2 days. On day 3, the cells were seeded on a 384-well plate, and cultured overnight at 37° C., 5% CO2. After overnight culture, the plate was added with serially diluted compounds (the final content of DMSO was 0.5%), the negative group was added with DMSO, and incubated in a 37° C., 5% CO2 incubator.
The cells were fixed, washed once with PBS, treated to disrupt membranes, and blocked at room temperature for 1 h. The blocking solution was removed. The plate was added with primary antibody (CST, Cat. No. #4370S), and incubated overnight at 4° C. The plate was washed 3 times with PBST (PBS solution added with 0.05% Tween-20) and soaked for 2 min each time. The plate was added with secondary antibody (LI-COR, Cat. No. 926-32211) and incubated at room temperature in the dark. The plate was washed 3 times with PBST and soaked for 2 min each time. The plate was centrifuged at 1000 rpm for 1 min, scanned on a two-color infrared laser imaging system (Odyssey® CLX) to read the signal.
Relative signal=800-channel signal values/700-channel signal values.
Relative expression level of ERK phosphorylation=(test compound−control compound I)/(DMSO group−control compound I)
(§5) IC50 values were calculated using Graphpad 5 software.
(A western blot detects proteins with antibodies after separation by electrophoresis.)

In a further series the test system is H358 cells. Kind of series: Inhibition of 3D cell proliferation (3D CellTiter-Glo). It counts as cell-based. Conditions: Homo sapiens, NCI-H358, 168 h, read-out: IC50 (nM), inhibition of 3D proliferation of H358 cells, 7 days. The method, then:
H358 cells were seeded in a T75 culture flask and cultured in a RPMI 1640 medium containing 10% FBS for 2 days for subsequent experiments in which the cells would be cultured or seeded on a 384-well plate.
On day 1, the cells were seeded on the 384-well plate, with 40 μL of medium added per well and serially diluted compounds or DMSO added per well, and an additional well without seeded cells but with medium was set up as a blank control. After culture at 37° C., 5% CO2 for 7 days, the plate was added with 3D CellTiter-Glo reagent (Promega, Cat. No. G9683) on day 8, shaken at 320 rpm for 20 min, and left at room temperature for 2 h. Luminescence signals were read on a multifunctional microplate reader. Cell viability inhibition rate was calculated as:
Cell viability inhibition rate=(DMSO group−test compound)/(DMSO group−blank control group)×100%
as §5
For orientation: Cellular ATP, detected with luciferase, serves as a proxy for viable cell number.

The nature of series [4]: Pharmacokinetic test in mice. It counts as in vivo. The conditions noted are these: mouse, plasma; male ICR mice, oral gavage, 10 mg/kg. The method, then:
Male ICR mice (20 to 25 g) were used and fasted overnight. Three mice were taken and orally administered by gavage (10 mg/kg). Blood was collected before the administration, and at 15 min, 30 min, 1 h, 2 h, 4 h, 8 h and 24 h after the administration. 6,800 g of the blood samples were centrifuged at 2 to 8° C. for 6 min, and plasma was collected and stored at −80° C. The plasma at each time point was taken and added with an acetonitrile solution containing internal standard in 3 to 5 times the amount, vortexed and mixed for 1 min, and centrifuged at 13,000 rpm/min at 4° C. for 10 min. The supernatant was collected, added with water in 3 times the amount, and mixed. An appropriate amount of the mixture was taken for LC-MS/MS analysis. The main pharmacokinetic parameters were analyzed using WinNonlin 7.0 software with non-compartmental model.

For series [5], the system named is Mia Paca-2 pancreatic cancer. Kind of series: Mia Paca-2 pancreatic cancer in vivo efficacy test. Also noted: species or system mice. The method, then: (§6) After one week of adaptive feeding of mice, Mia Paca-2 cells in a log phase were resuspended in serum-free DMEM, and then mixed with Matrigel in a ratio of 1:1.1×10^7 Mia Paca-2 cells were inoculated subcutaneously at the right flank at 100 μL per mouse, and tumor growth was observed regularly. When the tumor grew to an average volume of 150 to 200 mm^3, the mice were randomly divided into a model group and an administration group (single drug, in combination with trametinib) based on the tumor size and body weight. The tumor size and body weight were measured and recorded before and during the administration. After the treatment, the tumor size in the model group was compared with that in the administration group to determine the efficacy.

For a further series, the system named is LOVO colorectal cancer. The experiment in a line: LOVO colorectal cancer in vivo efficacy test. More on the design: species or system mice. Conditions: 25 mg/kg BID. The method, then: as §6, with “LOVO” for “Mia Paca-2”, “F12K, 5×10^6 LOVO” for “DMEM, and then mixed with Matrigel in a ratio of 1:1.1×10^7 Mia Paca-2”, “group” for “group (single drug, in combination with trametinib)”

Series [6] can be described thus: Human liver microsome stability test. It counts as in vitro ADME. The conditions noted are these: human, human liver microsomes. The method, then:
The human liver microsome stability test was performed by incubating the compound and human liver microsomes in vitro. First, the compound to be tested was prepared into a 10 mM stock solution in DMSO solvent, and then the compound was diluted to 0.5 mM with acetonitrile. Human liver microsomes (Corning) were diluted with PBS into a microsome/buffer solution, and the solution was used to dilute 0.5 mM compound into a working solution, in which the concentration of the compound was 1.5 μM, and the concentration of human liver microsomes was 0.75 mg/mL. A deep-well plate was taken, 30 μL of the working solution was added per well, and then 15 μL of pre-heated 6 mM NADPH solution was added thereto to initiate a reaction, and the reaction was incubated at 37° C. At 0, 5, 15, 30 and 45 min of the incubation, 135 μL of acetonitrile was added to the corresponding wells to terminate the reaction. After the reaction was terminated with acetonitrile at the last time point of 45 min, the deep-well plate was vortexed and vibrated for 10 min (600 rpm/min), and then centrifuged for 15 min. After centrifugation, the supernatant was collected, and added with purified water in a ratio of 1:1 to perform LC-MS/MS detection. A ratio of a peak area of compound to a peak area of internal standard at each time point was obtained, and the peak area ratios of the compound at 5, 15, 30 and 45 min were compared with the peak area ratio at 0 min to calculate the remaining percentage of the compound at each time point. T1/2 was calculated by using GraphPad 5 software.

The term AUC(0-t) denotes the area under the concentration-time curve up to a stated or last time point. High values mean high exposure, low ones low exposure. A word on the Cmax: it is the peak of the concentration-time curve. The term Tmax denotes the time from dosing to the highest level. For orientation: half-life means the time needed for the level to fall by half in the phase considered. Read a high half-life as slow decline.

Sequence of KRAS G12C-SOS1 (Q07889 whole entry, stated change not applied): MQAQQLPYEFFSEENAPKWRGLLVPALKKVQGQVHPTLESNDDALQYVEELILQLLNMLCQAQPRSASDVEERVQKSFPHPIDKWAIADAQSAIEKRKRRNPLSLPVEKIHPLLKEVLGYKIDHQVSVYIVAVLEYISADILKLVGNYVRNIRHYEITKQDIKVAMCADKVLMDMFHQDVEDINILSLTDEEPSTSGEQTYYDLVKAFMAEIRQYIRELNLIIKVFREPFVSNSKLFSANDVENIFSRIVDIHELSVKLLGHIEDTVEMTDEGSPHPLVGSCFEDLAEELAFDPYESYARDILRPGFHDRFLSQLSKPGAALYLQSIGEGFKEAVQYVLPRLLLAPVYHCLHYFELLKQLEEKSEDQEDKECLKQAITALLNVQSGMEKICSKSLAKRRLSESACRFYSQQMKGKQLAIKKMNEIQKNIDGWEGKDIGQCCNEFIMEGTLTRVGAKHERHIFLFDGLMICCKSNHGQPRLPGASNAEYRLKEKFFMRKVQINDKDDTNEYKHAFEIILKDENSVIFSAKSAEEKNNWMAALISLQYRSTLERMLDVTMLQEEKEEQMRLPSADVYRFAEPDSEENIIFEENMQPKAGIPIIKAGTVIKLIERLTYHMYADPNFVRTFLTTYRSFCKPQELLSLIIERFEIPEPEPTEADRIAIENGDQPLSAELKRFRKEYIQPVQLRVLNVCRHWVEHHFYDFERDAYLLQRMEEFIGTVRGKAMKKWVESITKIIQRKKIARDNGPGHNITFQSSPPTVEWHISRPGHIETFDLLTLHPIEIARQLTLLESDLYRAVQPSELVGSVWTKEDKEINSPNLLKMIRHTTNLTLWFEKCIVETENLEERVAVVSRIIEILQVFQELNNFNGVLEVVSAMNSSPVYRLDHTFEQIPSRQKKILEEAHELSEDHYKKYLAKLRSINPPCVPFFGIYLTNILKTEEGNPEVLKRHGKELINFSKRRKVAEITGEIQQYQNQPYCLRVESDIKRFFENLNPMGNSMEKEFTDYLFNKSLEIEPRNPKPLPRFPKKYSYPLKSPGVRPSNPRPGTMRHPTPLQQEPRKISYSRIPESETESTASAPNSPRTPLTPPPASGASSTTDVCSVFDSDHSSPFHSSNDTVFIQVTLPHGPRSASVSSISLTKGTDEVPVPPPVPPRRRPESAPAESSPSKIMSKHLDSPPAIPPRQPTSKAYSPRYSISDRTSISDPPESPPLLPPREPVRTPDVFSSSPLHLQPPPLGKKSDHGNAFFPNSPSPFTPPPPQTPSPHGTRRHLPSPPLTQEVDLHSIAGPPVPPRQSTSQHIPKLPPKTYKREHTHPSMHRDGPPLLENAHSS

In the case of `Cc1nc(N[C@H](C)c2cccc(S(=O)(=O)C(F)F)c2F)c2cn(C3(CF)CC3)c(=O)cc2n1` [Compound I-5, (R)-4-((1-(3-((difluoromethyl)sulfonyl)-2-fluorophenyl)ethyl)amino)-6-(1-(fluoromethyl)cyclopropyl)-2-methylpyrido[4,3-d]pyrimidin-7(6H)-one], the IC50 on KRAS G12C-SOS1 is 10 nM. Moreover, the fraction unbound at 5 h, 1 µM is 0.077 in [1] and 0.114 in series [2].

Consider `Cc1nc(N[C@H](C)c2cccc(S(F)(F)(F)(F)F)c2)c2cn(C3(C(F)F)CC3)c(=O)cc2n1` [Compound I-23, (R)-6-(1-(difluoromethyl)cyclopropyl)-2-methyl-4-((1-(3-(pentafluorosulfanyl)phenyl)ethyl)amino)pyrido[4,3-d]pyrimidin-7(6H)-one], for which, at KRAS G12C-SOS1, the IC50 amounted to 4.9 nM. In series [3], this compound gave an IC50 of 159 nM. Further, the IC50 in the series with H358 cells turned out to be 12 nM. Moreover, in series [4], the AUC(0-t) amounted to 44100 ng·h/mL, the peak level (Cmax) was 4240 ng/mL, the Tmax came to 2 h and the half-life is 2.33 h. In addition, in [5] (Mia Paca-2, 25 mg/kg BID), the “Average tumor weight at the end of the treatment” value (“Average tumor weight at the end” below) is given as 0.45 g and the “Tumor weight inhibition rate (relative to the vehicle group)” value is on record as 61%. Besides, in series [5] (Mia Paca-2, 50 mg/kg BID), the “Average tumor weight at the end” value was found to be 0.38 g and the “Tumor weight inhibition rate (relative to the vehicle group)” value is listed as 67%. Moreover, in the series on LOVO colorectal cancer, the “Average tumor weight at the end” value is 0.65 g and the “Tumor weight inhibition rate (relative to the vehicle group)” value is 53%.

In [6], `Cc1nc(N[C@H](C)c2cccc(C(F)(F)F)c2C)c2cn(C3(CF)CC3)c(=O)cc2n1` [Control compound I, reference compound] showed a half-life at 1 µM of 1.07 h. Further, in [1], the fraction unbound at 5 h, 1 µM came to 0.009. Moreover, in series [2], the fraction unbound at 5 h, 1 µM was 0.005. In addition, in series [4], the AUC(0-t) is 365 ng·h/mL, the peak level (Cmax) was 176 ng/mL, the Tmax is 0.25 h and the half-life is 1.35 h.

These data come from patent US20240166645A1, “PYRIDOPYRIMIDINONE DERIVATIVE, PREPARATION METHOD THEREFOR, AND USE THEREOF” (Wuhan Humanwell Innovative Drug Research and Development …, priority 2021, published 2024).
